Measurements reported in US20150209379A1, “TREATMENT OF PROSTATE CANCER AND HEMATOLOGIC NEOPLASMS” (THOMAS JEFFERSON UNIVERSITY, priority 2012, published 2015).

Legend:
[1] = test system: KCL22R imatinib-resistant human chronic myeloid leukemia cells; assay: Cell viability, MTS assay, KCL22R imatinib-resistant chronic myeloid leukemia cells; type: cell-based; conditions: 72 h, 3.1, 6.3, 12.5, 25 and 50 μM, vs control compound C5
Procedure: (§1) Exponentially growing KCL22R imatinib-resistant human chronic myeloid leukemia cells were treated with Compound 1, Compound 2 or the control compound C5 for 72 h at 3.1, 6.3. 12.5, 25 and 50 μM concentrations. The cell viability was assessed by MTS (3-(4,5-dimethylthiazolyl-2)-2,5-diphenyl-tetrazolium bromide) metabolic activity assay (CellTiter 96® AQueous Assay kit).
as §1, with “growing CWR22Rv1 prostate cancer cells, K562 leukemia cells and imatinib-sensitive KCL22S and imatinib-resistant” for “growing”, “KCL22R” for “KCL22R imatinib-resistant human”, “NBPP” for “Compound 1, Compound 2”

Stat5a = molecular target: T1, Stat5a (Homo sapiens, UniProt P42229); assay: Stat5a transcriptional activity, beta-casein promoter luciferase reporter gene assay in PC-3 cells; type: cell-based; parameters: expressed in transfected cells; host or cells: PC-3 human prostate cancer cells; conditions: 1 hour pretreatment, then 10 nM hPrl 16 hours
T1 sequence (P42229 1-794): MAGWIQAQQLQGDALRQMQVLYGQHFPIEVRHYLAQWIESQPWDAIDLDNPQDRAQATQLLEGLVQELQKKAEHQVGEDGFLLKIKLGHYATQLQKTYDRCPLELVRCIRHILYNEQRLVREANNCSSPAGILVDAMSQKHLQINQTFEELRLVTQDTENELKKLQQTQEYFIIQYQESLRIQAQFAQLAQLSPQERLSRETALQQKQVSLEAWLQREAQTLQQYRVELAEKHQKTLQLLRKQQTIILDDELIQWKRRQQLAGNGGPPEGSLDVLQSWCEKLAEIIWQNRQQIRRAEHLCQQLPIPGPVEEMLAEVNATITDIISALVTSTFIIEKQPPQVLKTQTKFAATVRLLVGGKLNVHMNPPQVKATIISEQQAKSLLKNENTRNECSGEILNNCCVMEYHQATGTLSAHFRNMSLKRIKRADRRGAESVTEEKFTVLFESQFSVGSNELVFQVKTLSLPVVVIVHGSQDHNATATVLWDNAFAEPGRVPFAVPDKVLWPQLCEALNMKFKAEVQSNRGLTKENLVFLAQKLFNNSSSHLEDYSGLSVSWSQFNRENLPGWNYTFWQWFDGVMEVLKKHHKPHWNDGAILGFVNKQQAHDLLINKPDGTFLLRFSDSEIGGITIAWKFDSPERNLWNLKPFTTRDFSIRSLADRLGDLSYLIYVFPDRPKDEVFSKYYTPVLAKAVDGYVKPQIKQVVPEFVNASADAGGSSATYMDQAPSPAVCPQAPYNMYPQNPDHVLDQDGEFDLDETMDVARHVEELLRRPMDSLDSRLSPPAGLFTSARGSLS
Procedure: Cells of the human prostate cell line PC-3 were plated into 96-well plate at the density of 2×10^5 per well. After 24 hours of plating, cells were transiently co-transfected using FuGENE6 (Roche) with 0.25 μg of each of pStat5a, pPrlR (prolactin receptor) plasmids, 0.5 μg of pBeta-casein-luc and 0.025 μg of pRL-TK (Renilla luciferase) plasmids as an internal control. After another 24 hours of transfection, the cells were starved in serum-free medium for 8 hours, pretreated with (2R,3R,4S,5R)-2-(6-(3,4-dihydroisoquinolin-2(1H)-yl)-9H-purin-9-yl)-5-(hydroxymethyl)tetrahydrofuran-3,4-diol (Compound 1) or (2R,3S,4R,5R)-2-(hydroxymethyl)-5-(6-(2-phenylhydrazinyl)-9H-purin-9-yl)tetrahydrofuran-3,4-diol (Compound 2), for 1 hour, and then stimulated with 10 nM human prolactin (hPrl) in the serum-free medium for additional 16 hours. The lysates were assayed for firefly and Renilla luciferase activities using the Dual-Luciferase reporter assay system (Promega). The firefly luciferase activity was normalized to the Renilla luciferase activity of the same sample, and the mean was calculated from the parallels. From the mean values of each independent run, the overall mean and its standard deviation (S.D.) were calculated.
(§2) Cells of the human prostate cell line PC-3 were plated into 96-well plate at the density of 2×10^5 per well. […] The firefly luciferase activity was normalized to the Renilla luciferase activity of the same sample, and the mean was calculated from the parallels. From the mean values of each independent run, the overall mean and its standard deviation (S.D.) were calculated.
as §2

SMILES	number of viable cells [1]	effect on transcriptional activity of Stat5a (Stat5a)
OC[C@H]1O[C@@H](n2cnc3c(N4CCc5ccccc5C4)ncnc32)[C@H](O)[C@@H]1O [Compound 1, (2R,3R,4S,5R)-2-(6-(3,4-Dihydroisoquinolin-2(1H)-yl)-9H-purin-9-yl)-5-(hydroxymethyl)tetrahydrofuran-3,4-diol]	decreased the number of viable leukemic cancer cells compared to the control compound	effectively block the transcriptional activity of Stat5a
OC[C@H]1O[C@@H](n2cnc3c(NNc4ccccc4)ncnc32)[C@H](O)[C@@H]1O [Compound 2, (2R,3S,4R,5R)-2-(hydroxymethyl)-5-(6-(2-phenylhydrazinyl)-9H-purin-9-yl)tetrahydrofuran-3,4-diol]	decreased the number of viable leukemic cancer cells compared to the control compound	effectively block the transcriptional activity of Stat5a
OC[C@H]1O[C@@H](n2cnc3c(NCc4ccccc4)ncnc32)[C@H](O)[C@@H]1O [Compound N6BA, N^6-benzyladenosine]		inhibits transcriptional activity of Stat5
OC[C@H]1O[C@@H](n2ccc3c(NCc4ccccc4)ncnc32)[C@H](O)[C@@H]1O [NBPP, N-(phenylmethyl)-7-β-D-ribofuranosyl-7H-pyrrolo[2,3-d]pyrimidin-4-amine]	decreased the number of viable KCL22R cells	
